# Measurements: patent US20240317780A1, “RADIOPHARMACEUTICAL SOMATOSTATIN RECEPTOR LIGANDS AND PRECURSORS THEREOF” (Technische Universität München, priority 2021, published 2024)
# Assays:
# [1] = Octanol-water distribution coefficient (logD pH 7.4) of the labeled tracer; format: physicochemical; settings: n-octanol/PBS pH 7.4, room temperature
# Summary of the method: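 About 1 MBq tracer partitioned in 1:1 PBS pH 7.4/n-octanol, mixed 3 min at room temperature, centrifuged 15000 g for 5 min. Both layers counted by gamma counter; at least six repeats.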
# SST2 = biological target: T1, SST2 (Homo sapiens, UniProt P30874); assay: Determination of IC50: competitive binding against [125I]TOC on SST2-transfected CHO cells; settings: [125I]TOC reference radioligand, 60 min room temperature
# T1 construct: expressed in transfected cells; host or cells: CHO (Chinese hamster ovary) cells
# T1 sequence (P30874 whole entry, species assumed): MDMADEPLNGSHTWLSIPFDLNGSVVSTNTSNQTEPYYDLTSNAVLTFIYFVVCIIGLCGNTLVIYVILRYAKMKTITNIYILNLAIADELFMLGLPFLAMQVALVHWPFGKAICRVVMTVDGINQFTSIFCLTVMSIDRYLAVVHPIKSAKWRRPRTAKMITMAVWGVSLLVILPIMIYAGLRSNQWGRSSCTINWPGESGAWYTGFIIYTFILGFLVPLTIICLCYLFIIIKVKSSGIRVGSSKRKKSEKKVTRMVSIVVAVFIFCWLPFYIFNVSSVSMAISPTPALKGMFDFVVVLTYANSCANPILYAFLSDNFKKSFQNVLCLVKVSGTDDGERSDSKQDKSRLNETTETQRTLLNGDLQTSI
# HSA = HSA (Homo sapiens, UniProt P02768); assay: HSA binding by RIAC method (gel filtration, apparent molecular weight); format: in vitro ADME; settings: HSA binding as apparent molecular weight, 700 μM HSA in PBS mobile phase
# Chain of HSA (P02768 25-609): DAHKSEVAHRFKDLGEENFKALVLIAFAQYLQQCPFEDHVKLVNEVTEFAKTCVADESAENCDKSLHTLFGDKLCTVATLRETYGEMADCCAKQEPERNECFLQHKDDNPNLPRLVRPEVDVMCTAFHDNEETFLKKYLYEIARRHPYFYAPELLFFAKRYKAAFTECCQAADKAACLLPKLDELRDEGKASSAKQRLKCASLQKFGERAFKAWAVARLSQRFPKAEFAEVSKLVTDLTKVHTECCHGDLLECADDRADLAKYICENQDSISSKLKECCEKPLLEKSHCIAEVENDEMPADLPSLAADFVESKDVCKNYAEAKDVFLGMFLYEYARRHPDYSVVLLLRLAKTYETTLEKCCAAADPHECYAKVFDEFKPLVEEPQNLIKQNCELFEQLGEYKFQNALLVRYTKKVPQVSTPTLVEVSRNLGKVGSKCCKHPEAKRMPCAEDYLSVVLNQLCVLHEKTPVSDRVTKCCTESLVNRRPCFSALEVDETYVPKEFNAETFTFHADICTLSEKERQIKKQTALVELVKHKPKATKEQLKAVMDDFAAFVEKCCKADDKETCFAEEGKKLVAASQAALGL
# Procedure: A gel filtration column Superdex 75 Increase 10/300 GL (GE Healthcare, Uppsala, Sweden) was beforehand calibrated following the producer's recommendations with a commercially available gel filtration calibration kit (GE Healthcare, Buckinghamshire, UK) comprising conalbumin (MW: 75 kDa), ovalbumin (44 kDa), carbonic anhydrase (29 kDa), ribonuclease A (13.7 kDa) and aprotinin (6.5 kDa) as reference proteins of known molecular weight. AMSEC experiments were conducted using a constant flow rate of 0.8 mL/min at rt. A solution of HSA in PBS at physiological concentration (700 μM) was used as the mobile phase. SST2 ligands were labelled as described with molar activities of 10-20 GBq/μmol. Probes of 1.0 MBq of the radioligand were injected directly from the labelling solution. HSA binding was expressed as an apparent molecular weight MW calculated from the retention time of the radioligand using the determined calibration curve.
# For evaluation, experimentally determined retention times tR are first converted into elution volumes Ve by multiplying with the flow rate and thereafter converted into partition coefficients Kav following the equation
# where V0 is the column void volume (8.027 mL) and Vc is the geometric column volume (24 mL). Using the equation given by the trend line plot of the column calibration
# the apparent molecular weight MW is calculated as […]
Compound,LogDpH=7.4 [1],IC50 (SST2) [nM],HSA (HSA) [kDa]
"C[C@@H](O)[C@H](NC(=O)C1CSSCC(NC(=O)C(Cc2ccccc2)NC(=O)CNC(=O)CNC(=O)[C@@H](CCCN)NC(=O)C(CCCN)NC(=O)[C@@H](CNC(=O)CC[C@H](C(=O)O)N2CCN(CC(=O)O)CCN(CC(=O)O)CCN(CC(=O)O)CC2)NC(=O)C(CN)NC(=O)c2ccc([Si](F)(C(C)(C)C)C(C)(C)C)cc2)C(=O)N[C@@H](Cc2ccc(O)cc2)C(=O)NC(Cc2c[nH]c3ccccc23)C(=O)N[C@@H](CCCCN)C(=O)N[C@@H]([C@@H](C)O)C(=O)N1)C(=O)O (some centres unmarked) (natGa complex, metal not drawn) [[Ga]37]",−1.92 ± 0.04,4.66 ± 0.53,17.60
"C[C@@H](O)[C@H](NC(=O)C1CSSCC(NC(=O)C(Cc2ccccc2)NC(=O)CNC(=O)C(CC(=O)O)NC(=O)[C@@H](CC(=O)O)NC(=O)C(CNC(=O)CN2CCN(CC(=O)O)CCN(CC(=O)O)CCN(CC(=O)O)CC2)NC(=O)[C@@H](CN)NC(=O)c2ccc([Si](F)(C(C)(C)C)C(C)(C)C)cc2)C(=O)N[C@@H](Cc2ccc(O)cc2)C(=O)NC(Cc2c[nH]c3ccccc23)C(=O)N[C@@H](CCCCN)C(=O)N[C@@H]([C@@H](C)O)C(=O)N1)C(=O)O (some centres unmarked) (natGa complex, metal not drawn) [[Ga]39]",−2.20 ± 0.05,14.9 ± 1.22,24.96
C[C@@H](O)[C@H](NC(=O)C1CSSCC(NC(=O)C(Cc2ccccc2)NC(=O)[C@@H](CC(N)=O)NC(=O)C(CC(N)=O)NC(=O)CNC(=O)C(CC(=O)O)NC(=O)[C@@H](CC(=O)O)NC(=O)C(CNC(=O)CN2CCN(CC(=O)O)CCN(CC(=O)O)CCN(CC(=O)O)CC2)NC(=O)C[N+](C)(C)Cc2ccc([Si](F)(C(C)(C)C)C(C)(C)C)cc2)C(=O)N[C@@H](Cc2ccc(O)cc2)C(=O)NC(Cc2c[nH]c3ccccc23)C(=O)N[C@@H](CCCCN)C(=O)N[C@@H]([C@@H](C)O)C(=O)N1)C(=O)O (some centres unmarked) [[Ga]49],−2.16 ± 0.03,–,7.26
C[C@@H](O)[C@H](NC(=O)C1CSSCC(NC(=O)C(Cc2ccccc2)NC(=O)CNC(=O)CNC(=O)CNC(=O)C(CC(=O)O)NC(=O)[C@@H](CC(=O)O)NC(=O)C(CNC(=O)CN2CCN(CC(=O)O)CCN(CC(=O)O)CCN(CC(=O)O)CC2)NC(=O)C[N+](C)(C)Cc2ccc([Si](F)(C(C)(C)C)C(C)(C)C)cc2)C(=O)N[C@@H](Cc2ccc(O)cc2)C(=O)NC(Cc2c[nH]c3ccccc23)C(=O)N[C@@H](CCCCN)C(=O)N[C@@H]([C@@H](C)O)C(=O)N1)C(=O)O (some centres unmarked) [[Ga]50],−2.00 ± 0.12,–,8.18
C[C@@H](O)[C@H](NC(=O)C1CSSCC(NC(=O)C(Cc2ccccc2)NC(=O)CNC(=O)CNC(=O)CNC(=O)C(CC(=O)O)NC(=O)[C@@H](CC(=O)O)NC(=O)C(CNC(=O)CN2CCN(CC(=O)O)CCN(CC(=O)O)CCN(CC(=O)O)CC2)NC(=O)[C@@H](CN)NC(=O)C[N+](C)(C)Cc2ccc([Si](F)(C(C)(C)C)C(C)(C)C)cc2)C(=O)N[C@@H](Cc2ccc(O)cc2)C(=O)NC(Cc2c[nH]c3ccccc23)C(=O)N[C@@H](CCCCN)C(=O)N[C@@H]([C@@H](C)O)C(=O)N1)C(=O)O (some centres unmarked) [[Ga]51],−1.97 ± 0.01,–,8.71
C[C@@H](O)[C@H](NC(=O)C1CSSCC(NC(=O)C(Cc2ccccc2)NC(=O)CNC(=O)CNC(=O)CNC(=O)C(CC(=O)O)NC(=O)[C@@H](CC(=O)O)NC(=O)C(CNC(=O)CN2CCN(CC(=O)O)CCN(CC(=O)O)CCN(CC(=O)O)CC2)NC(=O)[C@@H](CN)NC(=O)CNC(=O)C[N+](C)(C)Cc2ccc([Si](F)(C(C)(C)C)C(C)(C)C)cc2)C(=O)N[C@@H](Cc2ccc(O)cc2)C(=O)NC(Cc2c[nH]c3ccccc23)C(=O)N[C@@H](CCCCN)C(=O)N[C@@H]([C@@H](C)O)C(=O)N1)C(=O)O (some centres unmarked) [[Ga]52],−2.00 ± 0.02,–,7.82
C[C@@H](O)[C@H](NC(=O)C1CSSCC(NC(=O)C(Cc2ccccc2)NC(=O)CNC(=O)CNC(=O)CNC(=O)C(CC(=O)O)NC(=O)[C@@H](CC(=O)O)NC(=O)C(CNC(=O)CN2CCN(CC(=O)O)CCN(CC(=O)O)CCN(CC(=O)O)CC2)NC(=O)[C@@H](CN)NC(=O)CNC(=O)CNC(=O)C[N+](C)(C)Cc2ccc([Si](F)(C(C)(C)C)C(C)(C)C)cc2)C(=O)N[C@@H](Cc2ccc(O)cc2)C(=O)NC(Cc2c[nH]c3ccccc23)C(=O)N[C@@H](CCCCN)C(=O)N[C@@H]([C@@H](C)O)C(=O)N1)C(=O)O (some centres unmarked) [[Ga]53],−1.96 ± 0.01,–,8.48
C[C@@H](O)[C@H](NC(=O)C1CSSCC(NC(=O)C(Cc2ccccc2)NC(=O)CNC(=O)CNC(=O)[C@@H](CC(=O)O)NC(=O)C(CC(=O)O)NC(=O)[C@@H](CNC(=O)CC[C@H](C(=O)O)N2CCN(CC(=O)O)CCN(CC(=O)O)CCN(CC(=O)O)CC2)NC(=O)C(CN)NC(=O)c2ccc([Si](F)(C(C)(C)C)C(C)(C)C)cc2)C(=O)N[C@@H](Cc2ccc(O)cc2)C(=O)NC(Cc2c[nH]c3ccccc23)C(=O)N[C@@H](CCCCN)C(=O)N[C@@H]([C@@H](C)O)C(=O)N1)C(=O)O (some centres unmarked) [[Lu]20],−2.35 ± 0.04,–,18.76
C[C@@H](O)[C@H](NC(=O)C1CSSCC(NC(=O)C(Cc2ccccc2)NC(=O)CNC(=O)CNC(=O)CNC(=O)C(CC(=O)O)NC(=O)[C@@H](CC(=O)O)NC(=O)C(CNC(=O)CN2CCN(CC(=O)O)CCN(CC(=O)O)CCN(CC(=O)O)CC2)NC(=O)C[N+](C)(C)Cc2ccc([Si](F)(C(C)(C)C)C(C)(C)C)cc2)C(=O)N[C@@H](Cc2ccc(O)cc2)C(=O)NC(Cc2c[nH]c3ccccc23)C(=O)N[C@@H](CCCCN)C(=O)N[C@@H]([C@@H](C)O)C(=O)N1)C(=O)O (some centres unmarked) [[Lu]50],−1.79 ± 0.02,–,8.17
C[C@@H](O)[C@H](NC(=O)C1CSSCC(NC(=O)C(Cc2ccccc2)NC(=O)CNC(=O)CNC(=O)CNC(=O)C(CC(=O)O)NC(=O)[C@@H](CC(=O)O)NC(=O)C(CNC(=O)CN2CCN(CC(=O)O)CCN(CC(=O)O)CCN(CC(=O)O)CC2)NC(=O)[C@@H](CN)NC(=O)C[N+](C)(C)Cc2ccc([Si](F)(C(C)(C)C)C(C)(C)C)cc2)C(=O)N[C@@H](Cc2ccc(O)cc2)C(=O)NC(Cc2c[nH]c3ccccc23)C(=O)N[C@@H](CCCCN)C(=O)N[C@@H]([C@@H](C)O)C(=O)N1)C(=O)O (some centres unmarked) [[Lu]51],−1.71 ± 0.05,–,8.84
C[C@@H](O)[C@H](NC(=O)C1CSSCC(NC(=O)C(Cc2ccccc2)NC(=O)CNC(=O)CNC(=O)CNC(=O)C(CC(=O)O)NC(=O)[C@@H](CC(=O)O)NC(=O)C(CNC(=O)CN2CCN(CC(=O)O)CCN(CC(=O)O)CCN(CC(=O)O)CC2)NC(=O)[C@@H](CN)NC(=O)CNC(=O)C[N+](C)(C)Cc2ccc([Si](F)(C(C)(C)C)C(C)(C)C)cc2)C(=O)N[C@@H](Cc2ccc(O)cc2)C(=O)NC(Cc2c[nH]c3ccccc23)C(=O)N[C@@H](CCCCN)C(=O)N[C@@H]([C@@H](C)O)C(=O)N1)C(=O)O (some centres unmarked) [[Lu]52],−1.88 ± 0.05,–,8.47
C[C@@H](O)[C@H](NC(=O)C1CSSCC(NC(=O)C(Cc2ccccc2)NC(=O)CNC(=O)CNC(=O)CNC(=O)C(CC(=O)O)NC(=O)[C@@H](CC(=O)O)NC(=O)C(CNC(=O)CN2CCN(CC(=O)O)CCN(CC(=O)O)CCN(CC(=O)O)CC2)NC(=O)[C@@H](CN)NC(=O)CNC(=O)CNC(=O)C[N+](C)(C)Cc2ccc([Si](F)(C(C)(C)C)C(C)(C)C)cc2)C(=O)N[C@@H](Cc2ccc(O)cc2)C(=O)NC(Cc2c[nH]c3ccccc23)C(=O)N[C@@H](CCCCN)C(=O)N[C@@H]([C@@H](C)O)C(=O)N1)C(=O)O (some centres unmarked) [[Lu]53],−1.74 ± 0.03,–,9.81
